# In patent publication US5126488A, “2β,19-methyleneamino bridged steroids as aromatase inhibitors” (Merrell Dow Pharmaceuticals Inc., priority 1990, dated 1992):
# Target: T1, aromatase (Homo sapiens, UniProt P11511)
# T1 construct: 700 μl of aromatase preparation, usually 300-800 μg of microsomal protein per ml of assay buffer; from tissue; host or cells: microsomes
# T1 sequence (P11511 1-503): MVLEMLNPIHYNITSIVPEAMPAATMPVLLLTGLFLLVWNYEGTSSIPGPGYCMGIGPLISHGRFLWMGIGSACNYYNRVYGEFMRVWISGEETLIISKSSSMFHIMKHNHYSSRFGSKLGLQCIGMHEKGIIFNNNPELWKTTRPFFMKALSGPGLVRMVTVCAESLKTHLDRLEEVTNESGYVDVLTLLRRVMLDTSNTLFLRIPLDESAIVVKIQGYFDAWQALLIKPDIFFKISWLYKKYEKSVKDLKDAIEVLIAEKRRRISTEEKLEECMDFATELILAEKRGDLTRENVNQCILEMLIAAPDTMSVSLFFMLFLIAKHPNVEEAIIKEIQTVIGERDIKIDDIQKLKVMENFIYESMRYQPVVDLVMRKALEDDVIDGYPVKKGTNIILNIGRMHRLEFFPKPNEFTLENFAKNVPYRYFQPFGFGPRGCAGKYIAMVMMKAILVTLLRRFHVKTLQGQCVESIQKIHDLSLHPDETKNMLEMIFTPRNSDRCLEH
# Test: time-dependent aromatase inhibition assay (preincubation, Kitz-Wilson analysis)
# Format: biochemical
# Conditions: Kitz-Wilson plots
# Method: In this assay, the inhibitor is preincubated with enzyme prior to assaying for activity in the presence of high substrate levels. A time-related decrease in enzyme activity can be indicative of a preferred mode of inhibition.
# In the time-dependent assay, an amount of the enzyme inhibitor in 100 μl of the assay buffer described above which will provide assay concentrations which are usually between 1 nM and 10 μm are added to 35 ml centrifuge tubes containing 600 μl of the NADPH generating system. The preincubation is started by the addition of 700 μl of aromatase preparation, usually 300-800 μg of microsomal protein per ml of assay buffer. These preparations are mixed using a vortex mixer and incubated for 0, 5, 10 or 20 minutes at 25° C. […] The amount of radioactivity in the aqueous fraction is determined by scintillation procedures. The enzymatic activity for each concentration of inhibitor at each time period of preincubation is calculated as a percent of the "0" minute vehicle control arbitrarily set at 100%. Therefore, the present enzyme inhibition is expressed as a percentage: (100 percent minus percent enzyme activity with inhibitor present).
# Enzyme kinetic analysis utilized Kitz-Wilson plots for time-dependent assays. […] The pseudo first-order rate constant for enzyme inactivation (kcat) and the half-time of inactivation (.tau.50) of infinite inhibitor concentrations were determined. […]
smiles,measurement,setting,value
"C[C@]12CC[C@H]3[C@@H](CCC4=CC(=O)[C@H]5CNC[C@]43C5)[C@@H]1CCC2=O [2β,19-(methyleneamino)androst-4-ene-3,17-dione]",.tau.50 (half-time of inactivation),at infinite inhibitor concentrations,2.66 min
same,KI (inactivation),"inhibitor concentration giving half-maximal rate of enzyme inactivation, microsomal aromatase preparation, preincubation 0-20 min at 25° C., read-out: Ki (apparent Ki of inactivation)",0.259 µM
